Measurements published in article PMC5777145 (Analytical chemistry, 2017).
Entries after “also recorded” stand apart in the source; their conditions may differ.

What was measured:
[1] = rodent TD50, Comet assay; cited from earlier work
salmon testes DNA [2] = details: for ECL intensity vs enzyme reaction time, DNA oxidation (8-oxodG): 3 mM 4ABP, AF or anisidine, 5 mM NA, pH 7.4 + NADPH regenerating system + Cu2+, different cyt P450 sources, ECL at 0.7 V
salmon testes DNA [3] = system: salmon testes DNA
cyt P450s = assay: Mass spectrometry of metabolites after incubation with cyt P450s, NADPH and Cu2+; format: in vitro ADME; details: positive-ion electrospray MS
DNA = details: cited from earlier work
[4] = ref International Agency for Research on Cancer (IARC); cited from earlier work

| Structure (SMILES) | toxicity by conventional bioassays [1] | relative turnover rate R, DNA oxidation (level in words) (salmon testes DNA [2]) | ECL intensity vs enzyme reaction time, DNA oxidation (8-oxodG) (salmon testes DNA [2]) | influence of cyt P450 source on relative DNA oxidation rate (salmon testes DNA [2]; human, rat (enzyme sources), salmon (DNA), pH 7.4) | order of relative DNA oxidation rates (salmon testes DNA [2]; pH 7.4) | order of relative DNA adduction rate (salmon testes DNA [3]) | relative turnover rate R, DNA adduction (level in words) (salmon testes DNA [3]; array R values) | influence of cyt P450 source on relative DNA adduction rate (salmon testes DNA [3]; human, rat (enzyme sources), salmon (DNA)) | metabolites found (cyt P450s) | major DNA adduct found (DNA) | carcinogen classification [4] |
| --- | --- | --- | --- | --- | --- | --- | --- | --- | --- | --- | --- |
| Nc1ccc2ccccc2c1 [NA, 2-naphthylamine] | relative lower levels of toxicity | smaller R values | increases in ECL with reaction time | Supersome 1A2 had the largest relative DNA oxidation and adduction rates | 4-ABP > AF ≈ anisidine > NA | 4-ABP > AF > anisidine > NA | smaller R values | Supersome 1A2 had the largest relative DNA oxidation and adduction rates | hydronitroxide radical; also recorded: nitroso naphthalene | N-(2′-deoxyguanosin-8-yl)-2-naphthylamine | – |
| Nc1ccc2c(c1)Cc1ccccc1-2 [AF, 2-aminofluorene] | – | – | increases in ECL with reaction time | – | – | – | – | – | – | – | – |
| COc1ccccc1N [anisidine, o-anisidine] | – | – | increases in ECL with reaction time | – | – | – | – | – | o-aminophenol | N-(2′-deoxyguanosin-8-yl)-2-methoxyaniline | group 2B carcinogen |
| Nc1ccc(-c2ccccc2)cc1 [4ABP, 4-Aminobiphenyl] | – | – | increase in ECL intensity with reaction time | – | – | – | – | – | – | N-(2′-deoxyguanosin-8-yl)-4-aminobiphenyl | group I carcinogen |
